# Source: patent US20240270748A1 (Merck Patent GmbH, priority 2021, published 2024)
# Experiments:
# SW620 Yap KO cells = assay: Viability assay in SW620 Yap KO (Yap independent) cells, CyQuant; assay type: cell-based; details: Homo sapiens, SW-620, 96 h, class symbols
# Procedure, shortened: (§1)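 Seeded cells were dosed 24 h later in duplicate (10-point, 1:3 dilutions, top 30 μM final, 0.3% DMSO) and incubated 96 h at 37 °C. Viability was read with CyQUANT DNA dye after 1 h, fluorescence bottom read. NCI-H226 in RPMI 1640 medium; SW620 YAP/TAZ CRISPR knockout in DMEM/F-12 medium.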
# NCI-H226 cells = assay: Viability assay in NCI-H226 (Yap-dependent) cells, CyQuant; assay type: cell-based, human; details: Homo sapiens, class symbols
# Procedure, shortened: as §1
# YAP-TEAD interaction = assay: SK-HEP-1 reporter assay (8xTEAD responsive elements driving NanoLuc luciferase); assay type: cell-based; details: Homo sapiens, SK-HEP1, SK-HEP-1 reporter assay; class symbols
# Procedure, shortened: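 Reporter read-out: NanoLuc luminescence from 8×TEAD elements stably integrated in SK-HEP-1 cells, after 24 h compound exposure at 37° C. Ten concentrations tested in duplicate, top 30 μM final, 0.3% DMSO; IC50 from curve.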
# [1] = tested on: NCI-H226 human mesothelioma tumor cells; assay: NCI-H226 in vivo efficacy study; details: H2d Rag2 female mice, subcutaneous NCI-H226 tumors, po qd for 29 days
# Description: NCI-H226 In Vivo Efficacy Study
# 7-9-week-old H2d Rag2 female mice (own breeding, Taconic-Denmark) were inoculated subcutaneously with 5×10^6 NCI-H226 human mesothelioma tumor cells in the right flank. Tumor growth and body weight was measured twice weekly using caliper. Tumor volume was calculated using the formula TV=L×W×W/2.
# When tumor volume reached approximately 75-150 mm^3, animals were randomized (Day 0) into treatment groups (n=9-10/group) and treated perorally (po) once daily (qd) for 29 days with either vehicle (20% hydroxypropyl β-cyclodextrin in 50 mM PBS pH 7.4) or Compound no. 2. Compound no. 2 was tested at dosing levels of 1, 3, 10, 30, and 100 mg/kg, respectively. Results are depicted in FIG. 1 (tumor growth over time for vehicle group and each dosage group) and FIG. 2 (final tumor volume of vehicle group and each dosage group).
# Statistical analysis of tumor volumes between treatment groups was done using repeated measures analysis of covariance (RM-ANCOVA) in a linear mixed effects model followed by least-squares means pairwise comparisons.
# The animal experiment was performed under regulation of the German animal welfare act and in accordance with the EU laboratory animal directive for the area of animal experiments.
melting point,SMILES,further results
232 to 234 °C,"C[C@@H](CO)NS(=O)(=O)c1ccc2c(c1)c1nnn(C)c1n2-c1ccc(C(F)(F)F)cc1 [Example 38, N-[(2S)-1-hydroxypropan-2-yl]-3-methyl-4-[4-(trifluoromethyl)phenyl]-3H,4H-[1,2,3]triazolo[4,5-b]indole-7-sulfonamide]","IC50 (SW620 Yap KO cells): > 30000 nM; IC50 (NCI-H226 cells; NCI-H226, 96 h): > 10000 nM; IC50 (YAP-TEAD interaction): 10 to 100 nM"
111 to 112 °C,"COC(=O)c1ccc2c(c1)c1nn(C)cc1n2-c1ccc(C(F)(F)F)cc1 [Example 16, Methyl 2-methyl-4-[4-(trifluoromethyl)phenyl]pyrazolo[4,3-b]indole-7-carboxylate]",
110 to 111 °C,"Cn1cc2c3cc(C(=O)O[C@@H]4O[C@H](C(=O)O)[C@@H](O)[C@H](O)[C@H]4O)ccc3n(-c3ccc(C(F)(F)F)cc3)c2n1 [Example 30, (2S,3S,4S,5R,6S)-3,4,5-trihydroxy-6-{2-methyl-8-[4-(trifluoromethyl)phenyl]-2H,8H-pyrazolo[3,4-b]indole-5-carbonyloxy}oxane-2-carboxylic acid]",
185 to 187 °C,"C=CC(=O)NCc1ccc2c(c1)c1cn(C)nc1n2-c1ccc(C(F)(F)F)cc1 [Example 21, N-([2-methyl-8-[4-(trifluoromethyl)phenyl]pyrazolo [3,4-b]indol-5-yl]methyl)prop-2-enamide]",
179 to 181 °C,"CCOc1ccc(-n2c3ccc(C(=O)O)cc3c3cn(C)nc32)cc1 [Example 15, 8-(4-Ethoxyphenyl)-2-methyl-2H,8H-pyrazolo[3,4-b]indole-5-carboxylic acid]",
,"Cn1cc2c3cc(C(=O)O)ccc3n(-c3ccc(C(F)(F)F)cc3)c2n1 [Example 2, 2-methyl-8-[4-(trifluoromethyl)phenyl]-2H,8H-pyrazolo[3,4-b]indole-5-carboxylic acid]","dosing levels showing maximal inhibition of tumor growth [1]: > 10 mg/kg; tumor growth inhibition compared to vehicle treated group ([1]; all tested dosing levels 1, 3, 10, 30, 100 mg/kg, p-value <0.001): Significant tumor growth inhibition"
181 to 185 °C,"Cn1cc2c3cc(C(=O)NCc4ccncc4)ccc3n(-c3ccc(C(F)(F)F)cc3)c2n1 [Example 28, 2-methyl-N-[(pyridin-4-yl)methyl]-8-[4-(trifluoromethyl)phenyl]-2H, 8H-pyrazolo[3,4-b]indole-5-carboxamide]",
300 °C,"Cn1cc2c3cc(C(=O)NC4CC4)ccc3n(-c3ccc(C(F)(F)F)nc3)c2n1 [Example 27, N-cyclopropyl-2-methyl-8-[6-(trifluoromethyl)pyridin-3-yl]-2H,8H-pyrazolo[3,4-b]indole-5-carboxamide]",
208 to 210 °C,"Cn1cc2c(n1)c1cc(C#N)ccc1n2-c1ccc(C(F)(F)F)cc1 [Example 19, 2-methyl-4-[4-(trifluoromethyl)phenyl]pyrazolo [4,3-b]indole-7-carbonitrile]",
223 to 224 °C,"C=CC(=O)Nc1ccc2c(c1)c1cn(C)nc1n2-c1ccc(C(F)(F)F)cc1 [Example 20, N-[2-methyl-8-[4-(trifluoromethyl)phenyl]pyrazolo[3,4-b]indol-5-yl]prop-2-enamide]",
169 to 171 °C,"Cc1nc2c(s1)c1cc(C(=O)O)ccc1n2-c1ccc(C(F)(F)F)cc1 [Example 25, 2-methyl-4-[4-(trifluoromethyl)phenyl]-[1,3]thiazolo[4,5-b]indole-7-carboxylic acid]",

SMILES,melting point,further results
"Cn1cc2c3cc(CNC(=O)CCl)ccc3n(-c3ccc(C(F)(F)F)cc3)c2n1 [Example 24, 2-chloro-N-([2-methyl-8-[4-(trifluoromethyl)phenyl]pyrazolo[3,4-b]indol-5-yl]methyl)acetamide]",221 to 222 °C,IC50 (SW620 Yap KO cells): 1000 to 10000 nM; IC50 (NCI-H226 cells; 96 h): 100 to 1000 nM; IC50 (YAP-TEAD interaction): 100 to 10000 nM
